Experimental data reported in ChEMBL document CHEMBL4251615, “Discovery of anilino-furo[2,3-d]pyrimidine derivatives as dual inhibitors of EGFR/HER2 tyrosine kinase and their anticancer activity” (Eur J Med Chem, 2018).

Experiments:
U-251 = assay: Growth inhibition of human U251 cells assessed as cell growth at 10 uM incubated for 48 hrs by sulforhodamine B assay relative to control; format: functional; conditions: U-251, 48 h, read-out: Activity
K562 = assay: Growth inhibition of human K562 cells assessed as cell growth at 10 uM incubated for 48 hrs by sulforhodamine B assay relative to control; format: functional; conditions: K562, 48 h, read-out: Activity
BT-549 = assay: Growth inhibition of human BT549 cells assessed as cell growth at 10 uM incubated for 48 hrs by sulforhodamine B assay relative to control; format: functional; conditions: BT-549, 48 h, read-out: Activity
MDA-MB-468 = assay: Growth inhibition of human MDA-MB-468 cells assessed as cell growth at 10 uM incubated for 48 hrs by sulforhodamine B assay relative to control; format: functional; conditions: MDA-MB-468, 48 h, read-out: Activity
MDA-MB-231 = assay: Growth inhibition of human MDA-MB-231 cells assessed as cell growth at 10 uM incubated for 48 hrs by sulforhodamine B assay relative to control; format: functional; conditions: MDA-MB-231, 48 h, read-out: Activity
SF-295 = assay: Growth inhibition of human SF295 cells assessed as cell growth at 10 uM incubated for 48 hrs by sulforhodamine B assay relative to control; format: functional; conditions: SF-295, 48 h, read-out: Activity
[1] = molecular target: Receptor tyrosine-protein kinase erbB-2 (Homo sapiens) (UniProt P04626); assay: Inhibition of recombinant human N-terminal GST-tagged HER2 (679 to 1255 residues) expressed in baculovirus infected Sf9 cells at 10 uM using poly[Glu:Tyr] (4:1) as substrate after 40 mins by Kinase-Glo plus luminescence assay relative to control
ACHN = assay: Growth inhibition of human ACHN cells assessed as cell growth at 10 uM incubated for 48 hrs by sulforhodamine B assay relative to control; format: functional; conditions: read-out: Activity
RXF 393 = assay: Growth inhibition of human RXF393 cells assessed as cell growth at 10 uM incubated for 48 hrs by sulforhodamine B assay relative to control; format: functional; conditions: RXF 393, 48 h, read-out: Activity
SNB-19 = assay: Growth inhibition of human SNB19 cells assessed as cell growth at 10 uM incubated for 48 hrs by sulforhodamine B assay relative to control; format: functional; conditions: SNB-19, 48 h, read-out: Activity
OVCAR-3 = assay: Growth inhibition of human OVCAR3 cells assessed as cell growth at 10 uM incubated for 48 hrs by sulforhodamine B assay relative to control; format: functional; conditions: OVCAR-3, 48 h, read-out: Activity
NCI-H322M = assay: Growth inhibition of human NCI-H322M cells assessed as cell growth at 10 uM incubated for 48 hrs by sulforhodamine B assay relative to control; format: functional; conditions: read-out: Activity
HCT-15 = assay: Growth inhibition of human HCT15 cells assessed as cell growth at 10 uM incubated for 48 hrs by sulforhodamine B assay relative to control; format: functional; conditions: HCT-15, 48 h, read-out: Activity
NCI-H226 = assay: Growth inhibition of human NCI-H226 cells assessed as cell growth at 10 uM incubated for 48 hrs by sulforhodamine B assay relative to control; format: functional; conditions: NCI-H226, 48 h, read-out: Activity
[2] = molecular target: Epidermal growth factor receptor (Homo sapiens, UniProt P00533); assay: Inhibition of recombinant human C-terminal His/N-terminal GST-tagged EGFR (668 to 1210 residues) expressed in baculovirus infected Sf9 cells at 10 uM using biotin-labeled poly[Glu:Tyr] (4:1) as substrate after 30 mins by Kinase-Glo plus luminescence assay relative to control
MCF7 = assay: Growth inhibition of human MCF7 cells assessed as cell growth at 10 uM incubated for 48 hrs by sulforhodamine B assay relative to control; format: functional; conditions: MCF7, 48 h, read-out: Activity
LOX IMVI = assay: Growth inhibition of human LOXIMVI cells assessed as cell growth at 10 uM incubated for 48 hrs by sulforhodamine B assay relative to control; format: functional; conditions: read-out: Activity
HOP-92 = assay: Growth inhibition of human HOP92 cells assessed as cell growth at 10 uM incubated for 48 hrs by sulforhodamine B assay relative to control; format: functional; conditions: HOP-92, 48 h, read-out: Activity
CAKI-1 = assay: Growth inhibition of human Caki1 cells assessed as cell growth at 10 uM incubated for 48 hrs by sulforhodamine B assay relative to control; format: functional; conditions: CAKI-1, 48 h, read-out: Activity
T47D = assay: Growth inhibition of human T47D cells assessed as cell growth at 10 uM incubated for 48 hrs by sulforhodamine B assay relative to control; format: functional; conditions: read-out: Activity
NCI/ADR-RES = assay: Growth inhibition of human NCI/ADR-RES cells assessed as cell growth at 10 uM incubated for 48 hrs by sulforhodamine B assay relative to control; format: functional; conditions: read-out: Activity
A498 = assay: Growth inhibition of human A498 cells assessed as cell growth at 10 uM incubated for 48 hrs by sulforhodamine B assay relative to control; format: functional; conditions: A498, 48 h, read-out: Activity
SF-539 = assay: Growth inhibition of human SF539 cells assessed as cell growth at 10 uM incubated for 48 hrs by sulforhodamine B assay relative to control; format: functional; conditions: SF-539, 48 h, read-out: Activity
HOP-62 = assay: Growth inhibition of human HOP62 cells assessed as cell growth at 10 uM incubated for 48 hrs by sulforhodamine B assay relative to control; format: functional; conditions: HOP-62, 48 h, read-out: Activity
NCI-H460 = assay: Growth inhibition of human NCI-H460 cells assessed as cell growth at 10 uM incubated for 48 hrs by sulforhodamine B assay relative to control; format: functional; conditions: NCI-H460, 48 h, read-out: Activity
SF-268 = assay: Growth inhibition of human SF268 cells assessed as cell growth at 10 uM incubated for 48 hrs by sulforhodamine B assay relative to control; format: functional; conditions: SF-268, 48 h, read-out: Activity
OVCAR-4 = assay: Growth inhibition of human OVCAR4 cells assessed as cell growth at 10 uM incubated for 48 hrs by sulforhodamine B assay relative to control; format: functional; conditions: OVCAR-4, 48 h, read-out: Activity

Epidermal growth factor receptor, sequence (P00533 whole entry, the tested form may be a part): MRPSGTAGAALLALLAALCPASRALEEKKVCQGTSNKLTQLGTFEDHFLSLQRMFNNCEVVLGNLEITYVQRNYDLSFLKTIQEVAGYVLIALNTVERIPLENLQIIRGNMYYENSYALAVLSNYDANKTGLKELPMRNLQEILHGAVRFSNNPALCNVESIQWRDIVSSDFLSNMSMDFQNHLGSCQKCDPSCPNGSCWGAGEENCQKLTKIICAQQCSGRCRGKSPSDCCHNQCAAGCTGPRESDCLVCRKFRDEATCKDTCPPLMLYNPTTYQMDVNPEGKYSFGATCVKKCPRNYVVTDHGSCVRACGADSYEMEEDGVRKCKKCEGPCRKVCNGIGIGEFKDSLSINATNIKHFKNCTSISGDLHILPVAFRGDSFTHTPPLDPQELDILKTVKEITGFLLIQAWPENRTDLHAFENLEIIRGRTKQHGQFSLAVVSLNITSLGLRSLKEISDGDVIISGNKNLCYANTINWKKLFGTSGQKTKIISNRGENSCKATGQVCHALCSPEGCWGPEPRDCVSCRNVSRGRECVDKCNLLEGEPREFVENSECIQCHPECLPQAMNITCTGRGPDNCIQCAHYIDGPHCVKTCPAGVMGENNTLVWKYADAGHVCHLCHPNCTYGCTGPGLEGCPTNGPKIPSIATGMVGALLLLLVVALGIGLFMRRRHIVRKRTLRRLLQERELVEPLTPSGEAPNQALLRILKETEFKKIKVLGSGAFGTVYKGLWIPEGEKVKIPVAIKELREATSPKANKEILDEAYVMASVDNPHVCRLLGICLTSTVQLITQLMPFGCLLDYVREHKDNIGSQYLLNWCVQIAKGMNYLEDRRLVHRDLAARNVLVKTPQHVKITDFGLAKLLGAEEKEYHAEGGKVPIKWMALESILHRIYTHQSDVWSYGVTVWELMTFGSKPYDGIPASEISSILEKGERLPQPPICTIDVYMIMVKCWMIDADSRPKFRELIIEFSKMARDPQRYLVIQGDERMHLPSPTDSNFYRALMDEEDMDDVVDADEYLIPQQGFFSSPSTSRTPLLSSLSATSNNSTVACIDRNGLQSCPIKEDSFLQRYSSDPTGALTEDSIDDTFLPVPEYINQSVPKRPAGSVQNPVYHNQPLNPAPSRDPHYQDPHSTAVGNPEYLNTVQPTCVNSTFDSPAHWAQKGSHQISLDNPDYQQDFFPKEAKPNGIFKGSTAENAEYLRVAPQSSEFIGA
Receptor tyrosine-protein kinase erbB-2 (Homo sapiens), sequence (P04626 whole entry, the tested form may be a part): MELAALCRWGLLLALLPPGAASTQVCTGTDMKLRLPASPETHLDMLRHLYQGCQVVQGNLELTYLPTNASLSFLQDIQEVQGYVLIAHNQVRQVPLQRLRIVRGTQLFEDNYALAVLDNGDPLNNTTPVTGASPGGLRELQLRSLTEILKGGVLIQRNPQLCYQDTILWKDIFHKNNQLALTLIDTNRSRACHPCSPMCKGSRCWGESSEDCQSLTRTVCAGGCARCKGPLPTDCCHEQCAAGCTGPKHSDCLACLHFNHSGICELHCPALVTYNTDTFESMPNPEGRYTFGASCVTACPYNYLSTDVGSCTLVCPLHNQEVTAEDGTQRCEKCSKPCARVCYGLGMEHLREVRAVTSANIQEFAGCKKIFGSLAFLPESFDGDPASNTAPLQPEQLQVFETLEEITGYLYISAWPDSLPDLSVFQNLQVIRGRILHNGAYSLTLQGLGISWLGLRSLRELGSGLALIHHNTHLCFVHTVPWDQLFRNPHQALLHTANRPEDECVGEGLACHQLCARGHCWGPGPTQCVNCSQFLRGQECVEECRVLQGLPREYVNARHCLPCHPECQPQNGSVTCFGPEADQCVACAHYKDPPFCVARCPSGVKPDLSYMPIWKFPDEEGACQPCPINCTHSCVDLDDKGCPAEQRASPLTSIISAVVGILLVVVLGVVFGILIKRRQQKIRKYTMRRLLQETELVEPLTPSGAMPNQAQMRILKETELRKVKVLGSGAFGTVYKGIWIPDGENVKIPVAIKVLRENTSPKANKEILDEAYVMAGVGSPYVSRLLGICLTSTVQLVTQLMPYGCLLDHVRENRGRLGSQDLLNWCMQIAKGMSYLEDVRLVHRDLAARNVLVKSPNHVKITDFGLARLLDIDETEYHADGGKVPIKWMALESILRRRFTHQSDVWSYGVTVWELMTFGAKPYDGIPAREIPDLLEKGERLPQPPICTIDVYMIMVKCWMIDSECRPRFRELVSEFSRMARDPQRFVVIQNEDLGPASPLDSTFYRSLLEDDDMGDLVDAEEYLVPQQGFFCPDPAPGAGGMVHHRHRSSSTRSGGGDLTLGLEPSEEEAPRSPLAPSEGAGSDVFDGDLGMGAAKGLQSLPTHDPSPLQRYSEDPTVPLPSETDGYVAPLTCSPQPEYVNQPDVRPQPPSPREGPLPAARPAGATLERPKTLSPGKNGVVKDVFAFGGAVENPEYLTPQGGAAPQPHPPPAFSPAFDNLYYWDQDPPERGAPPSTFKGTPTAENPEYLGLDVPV

Row | Structure (SMILES) | growth at 10 µM (U-251) | growth at 10 µM (K562) | growth at 10 µM (BT-549) | growth at 10 µM (MDA-MB-468) | growth at 10 µM (MDA-MB-231) | growth at 10 µM (SF-295) | growth at 10 µM (ACHN) | growth at 10 µM (RXF 393) | growth at 10 µM (SNB-19) | growth at 10 µM (OVCAR-3) | growth at 10 µM (NCI-H322M) | growth at 10 µM (HCT-15) | growth at 10 µM (NCI-H226) | inhibition [2] | growth at 10 µM (MCF7) | growth at 10 µM (LOX IMVI) | growth at 10 µM (HOP-92) | growth at 10 µM (CAKI-1) | growth at 10 µM (T47D) | growth at 10 µM (NCI/ADR-RES) | further results
1 | Cc1oc2ncnc(Nc3ccc(OCc4cccc(F)c4)c(Cl)c3)c2c1C(=O)NCCO | 48.1% | 33.2% | 61.7% | 57.4% | 26% | 49.5% | 49.7% | 60% | 34.3% | 78.1% | 86.3% | 61.1% | 40.8% | 32% | 62.9% | 61.5% | 41.9% | 74.2% | 34.7% | 70.8% | inhibition [1]: 6%; growth at 10 µM (A498): 81.6%; growth at 10 µM (SF-539): 47.4%; growth at 10 µM (HOP-62): 51.1%; growth at 10 µM (NCI-H460): 34.7%; growth at 10 µM (SF-268): 47.2%; growth at 10 µM (OVCAR-4): 66.9%
2 | CCCNC(=O)c1c(C)oc2ncnc(Nc3cccc(Cl)c3)c12 | 90.9% | 90.1% | 102% | 81.7% | 88.2% | 90.1% | 107% | 111% | 106% | 106% | 103% | 101% | 90% | 65% | 93.5% | 96.4% | 57.2% | 101% | 53.5% | 94.1% | growth at 10 µM (A498): 74.3%; growth at 10 µM (SF-539): 99.1%; growth at 10 µM (HOP-62): 87.7%; growth at 10 µM (NCI-H460): 107%; growth at 10 µM (SF-268): 95.5%; growth at 10 µM (OVCAR-4): 101%
3 | CCOC(=O)c1c(C)oc2ncnc(Nc3cccc(F)c3)c12 | 106% | 101% | 94.2% | 96.5% | 91.7% | 94.8% | 109% | 97.6% | 93.7% | 108% | 106% | 95.3% | 101% | 2% | 95.4% | 105% | 88.3% | 92% | 92.7% | 96.1% | growth at 10 µM (A498): 75.9%; growth at 10 µM (SF-539): 99.4%; growth at 10 µM (HOP-62): 101%; growth at 10 µM (NCI-H460): 101%; growth at 10 µM (SF-268): 102%; growth at 10 µM (OVCAR-4): 108%
4 | Cc1oc2ncnc(Nc3cccc(F)c3)c2c1C(=O)O | 106% | 98.5% | 93.9% | 104% | 85% | 98.7% | 100% | 115% | 94.6% | 102% | 109% | 101% | 109% | 49% | 97.6% | 98% | 89.3% | 93.8% | 95.6% | 105% | growth at 10 µM (A498): 90.5%; growth at 10 µM (SF-539): 92.5%; growth at 10 µM (HOP-62): 98.4%; growth at 10 µM (NCI-H460): 104%; growth at 10 µM (SF-268): 96.3%; growth at 10 µM (OVCAR-4): 101%
5 | Cc1cccc(Nc2ncnc3oc(C)c(C(=O)NCCN4CCOCC4)c23)c1 | 105% | 98.3% | 90.7% | 89.4% | 81.8% | 94% | 93.6% | 86.3% | 91% | 102% | 101% | 94.9% | 94.9% | 30% | 96.2% | 93.2% | 97.6% | 90.2% | 106% | 94.7% | growth at 10 µM (A498): 68.9%; growth at 10 µM (SF-539): 95.4%; growth at 10 µM (HOP-62): 93.1%; growth at 10 µM (NCI-H460): 105%; growth at 10 µM (SF-268): 93.3%; growth at 10 µM (OVCAR-4): 110%
